# Data: PubChem BioAssay (NCI)
#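 Where inhibition never reached the appropriate level, the endpoint shown equals the highest concentration tested. Otherwise, values were interpolated linearly from a five-concentration, 48-hour dose response in 96-well plates. The concentration for 50% growth inhibition is given as GI50. TGI is the concentration that stops growth completely.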
# Legend:
# Experiment in all cases: NCI-60 cell line screen, 48 h
# NCI-H460 lung = system: NCI-H460 lung
# SK-OV-3 ovarian = system: SK-OV-3 ovarian
# HOP-62 NSCLC = system: HOP-62 NSCLC
# MDA-MB-435 = system: MDA-MB-435
# SK-MEL-5 melanoma = system: SK-MEL-5 melanoma
# SF-539 CNS = system: SF-539 CNS
# DU-145 prostate = system: DU-145 prostate
# HOP-92 NSCLC = system: HOP-92 NSCLC
# NCI/ADR-RES ovarian = system: NCI/ADR-RES ovarian
# A498 renal = system: A498 renal
# OVCAR-5 ovarian = system: OVCAR-5 ovarian
# SK-MEL-2 melanoma = system: SK-MEL-2 melanoma
# MOLT-4 leukemia = system: MOLT-4 leukemia
# OVCAR-8 ovarian = system: OVCAR-8 ovarian
# ACHN renal = system: ACHN renal
# SNB-19 CNS = system: SNB-19 CNS
# HCT-116 colon = system: HCT-116 colon
# NCI-H23 lung = system: NCI-H23 lung
# BT-549 breast = system: BT-549 breast
# U251 CNS = system: U251 CNS
# NCI-H522 lung = system: NCI-H522 lung
# SR leukemia = system: SR leukemia
# RPMI-8226 leukemia = system: RPMI-8226 leukemia
# T-47D breast = system: T-47D breast
# HCT-15 colon = system: HCT-15 colon
# RXF 393 renal = system: RXF 393 renal
# CAKI-1 renal = system: CAKI-1 renal
# SF-295 CNS = system: SF-295 CNS
# UACC-62 melanoma = system: UACC-62 melanoma
# HCC-2998 colon = system: HCC-2998 colon
# NCI-H226 lung = system: NCI-H226 lung
# 786-0 renal = system: 786-0 renal
# M14 melanoma = system: M14 melanoma
# HL-60(TB) leukemia = system: HL-60(TB) leukemia
# EKVX NSCLC = system: EKVX NSCLC
# TK-10 renal = system: TK-10 renal
# MALME-3M melanoma = system: MALME-3M melanoma
# OVCAR-4 ovarian = system: OVCAR-4 ovarian
# MCF7 breast = system: MCF7 breast
# K-562 leukemia = system: K-562 leukemia
# IGROV1 ovarian = system: IGROV1 ovarian
# A549 NSCLC = system: A549 NSCLC
# MDA-MB-231 breast = system: MDA-MB-231 breast
# UACC-257 melanoma = system: UACC-257 melanoma
# COLO 205 colon = system: COLO 205 colon
# LOX IMVI melanoma = system: LOX IMVI melanoma
# HS 578T breast = system: HS 578T breast
# SNB-75 CNS = system: SNB-75 CNS
# CCRF-CEM leukemia = system: CCRF-CEM leukemia
# OVCAR-3 ovarian = system: OVCAR-3 ovarian
# SK-MEL-28 melanoma = system: SK-MEL-28 melanoma
# SN12C renal = system: SN12C renal
# HT29 colon = system: HT29 colon
# SF-268 CNS = system: SF-268 CNS
# UO-31 renal = system: UO-31 renal
# PC-3 prostate = system: PC-3 prostate
# SW-620 colon = system: SW-620 colon
# KM12 colon = system: KM12 colon
# MDA-N = system: MDA-N
structure (smiles),measurement,setting,value
COc1ccc2c(c1)C(=O)c1c-2n(CCCCl)c(=O)c2cc(N)ccc12,GI50,NCI-H460 lung,> 100 µM
same,TGI,NCI-H460 lung,> 100 µM
same,GI50,SK-OV-3 ovarian,> 100 µM
same,TGI,SK-OV-3 ovarian,> 100 µM
same,GI50,HOP-62 NSCLC,> 100 µM
same,TGI,HOP-62 NSCLC,> 100 µM
same,GI50,MDA-MB-435,> 100 µM
same,TGI,MDA-MB-435,> 100 µM
same,GI50,SK-MEL-5 melanoma,51 µM
same,TGI,SK-MEL-5 melanoma,> 100 µM
same,GI50,SF-539 CNS,> 100 µM
same,TGI,SF-539 CNS,> 100 µM
same,GI50,DU-145 prostate,56.9 µM
same,TGI,DU-145 prostate,> 100 µM
same,GI50,HOP-92 NSCLC,21.2 µM
same,TGI,HOP-92 NSCLC,> 100 µM
same,GI50,NCI/ADR-RES ovarian,> 100 µM
same,TGI,NCI/ADR-RES ovarian,> 100 µM
same,GI50,A498 renal,> 100 µM
same,TGI,A498 renal,> 100 µM
same,GI50,OVCAR-5 ovarian,> 61.7 µM
same,TGI,OVCAR-5 ovarian,> 100 µM
same,GI50,SK-MEL-2 melanoma,> 100 µM
same,TGI,SK-MEL-2 melanoma,> 100 µM
same,GI50,MOLT-4 leukemia,> 54.6 µM
same,TGI,MOLT-4 leukemia,> 100 µM
same,GI50,OVCAR-8 ovarian,> 100 µM
same,TGI,OVCAR-8 ovarian,> 100 µM
same,GI50,ACHN renal,98.4 µM
same,TGI,ACHN renal,> 100 µM
same,GI50,SNB-19 CNS,> 100 µM
same,TGI,SNB-19 CNS,> 100 µM
same,GI50,HCT-116 colon,> 57.9 µM
same,TGI,HCT-116 colon,> 100 µM
same,GI50,NCI-H23 lung,> 100 µM
same,TGI,NCI-H23 lung,> 100 µM
same,GI50,BT-549 breast,> 100 µM
same,TGI,BT-549 breast,> 100 µM
same,GI50,U251 CNS,> 51.6 µM
same,TGI,U251 CNS,> 100 µM
same,GI50,NCI-H522 lung,> 84.4 µM
same,TGI,NCI-H522 lung,> 100 µM
same,GI50,SR leukemia,> 62.8 µM
same,TGI,SR leukemia,> 100 µM
same,GI50,RPMI-8226 leukemia,> 100 µM
same,TGI,RPMI-8226 leukemia,> 100 µM
same,GI50,T-47D breast,> 100 µM
same,TGI,T-47D breast,> 100 µM
same,GI50,HCT-15 colon,> 95.7 µM
same,TGI,HCT-15 colon,> 100 µM
same,GI50,RXF 393 renal,> 57.3 µM
same,TGI,RXF 393 renal,> 100 µM
same,GI50,CAKI-1 renal,> 100 µM
same,TGI,CAKI-1 renal,> 100 µM
same,GI50,SF-295 CNS,> 64.6 µM
same,TGI,SF-295 CNS,> 100 µM
same,GI50,UACC-62 melanoma,> 100 µM
same,TGI,UACC-62 melanoma,> 100 µM
same,GI50,HCC-2998 colon,> 100 µM
same,TGI,HCC-2998 colon,> 100 µM
same,GI50,NCI-H226 lung,> 80.7 µM
same,TGI,NCI-H226 lung,> 100 µM
same,GI50,786-0 renal,> 63.7 µM
same,TGI,786-0 renal,> 100 µM
same,GI50,M14 melanoma,> 100 µM
same,TGI,M14 melanoma,> 100 µM
same,GI50,HL-60(TB) leukemia,> 41.3 µM
same,TGI,HL-60(TB) leukemia,> 59.1 µM
same,GI50,EKVX NSCLC,> 100 µM
same,TGI,EKVX NSCLC,> 100 µM
same,GI50,TK-10 renal,> 82.5 µM
same,TGI,TK-10 renal,> 100 µM
same,GI50,MALME-3M melanoma,> 100 µM
same,TGI,MALME-3M melanoma,> 100 µM
same,GI50,OVCAR-4 ovarian,> 96.7 µM
same,TGI,OVCAR-4 ovarian,> 100 µM
same,GI50,MCF7 breast,34.8 µM
same,TGI,MCF7 breast,> 100 µM
same,GI50,K-562 leukemia,> 48.7 µM
same,TGI,K-562 leukemia,> 100 µM
same,GI50,IGROV1 ovarian,> 100 µM
same,TGI,IGROV1 ovarian,> 100 µM
same,GI50,A549 NSCLC,> 100 µM
same,TGI,A549 NSCLC,> 100 µM
same,GI50,MDA-MB-231 breast,25.6 µM
same,TGI,MDA-MB-231 breast,> 95.7 µM
same,GI50,UACC-257 melanoma,> 100 µM
same,TGI,UACC-257 melanoma,> 100 µM
same,GI50,COLO 205 colon,> 100 µM
same,TGI,COLO 205 colon,> 100 µM
same,GI50,LOX IMVI melanoma,98.2 µM
same,TGI,LOX IMVI melanoma,> 100 µM
same,GI50,HS 578T breast,> 96.3 µM
same,TGI,HS 578T breast,> 100 µM
same,GI50,SNB-75 CNS,> 51.7 µM
same,TGI,SNB-75 CNS,> 85.7 µM
same,GI50,CCRF-CEM leukemia,> 44.5 µM
same,TGI,CCRF-CEM leukemia,> 59.4 µM
same,GI50,OVCAR-3 ovarian,> 100 µM
same,TGI,OVCAR-3 ovarian,> 100 µM
same,GI50,SK-MEL-28 melanoma,> 100 µM
same,TGI,SK-MEL-28 melanoma,> 100 µM
same,TGI,SN12C renal,97.4 µM
same,GI50,HT29 colon,> 100 µM
same,TGI,HT29 colon,> 100 µM
same,GI50,SF-268 CNS,> 75.4 µM
same,TGI,SF-268 CNS,> 100 µM
same,GI50,UO-31 renal,> 100 µM
same,TGI,UO-31 renal,> 100 µM
same,GI50,PC-3 prostate,> 72.8 µM
same,TGI,PC-3 prostate,> 100 µM
same,GI50,SW-620 colon,> 68.1 µM
same,TGI,SW-620 colon,> 100 µM
same,GI50,KM12 colon,29.3 µM
same,TGI,KM12 colon,> 100 µM
COc1cc([C@@H]2c3cc4c(cc3[C@@H](NC(=O)NO)[C@H]3COC(=O)[C@H]23)OCO4)cc(OC)c1O,TGI,NCI-H460 lung,> 100 µM
same,TGI,HOP-62 NSCLC,> 100 µM
same,TGI,SF-539 CNS,> 100 µM
same,GI50,DU-145 prostate,7.27 µM
same,TGI,DU-145 prostate,> 100 µM
same,TGI,HOP-92 NSCLC,> 100 µM
same,TGI,NCI/ADR-RES ovarian,93.1 µM
same,TGI,A498 renal,> 100 µM
same,TGI,SK-MEL-2 melanoma,> 100 µM
same,GI50,MOLT-4 leukemia,4.87 µM
same,TGI,MOLT-4 leukemia,> 100 µM
same,GI50,OVCAR-8 ovarian,34.4 µM
same,TGI,OVCAR-8 ovarian,> 100 µM
same,GI50,ACHN renal,6.04 µM
same,TGI,SNB-19 CNS,> 100 µM
same,TGI,HCT-116 colon,> 100 µM
same,GI50,NCI-H23 lung,9.31 µM
same,TGI,NCI-H23 lung,> 100 µM
same,TGI,U251 CNS,> 100 µM
same,TGI,NCI-H522 lung,> 100 µM
same,TGI,SR leukemia,> 100 µM
same,TGI,RPMI-8226 leukemia,> 100 µM
same,TGI,T-47D breast,> 100 µM
same,TGI,HCT-15 colon,> 100 µM
same,TGI,CAKI-1 renal,> 100 µM
same,GI50,SF-295 CNS,4.97 µM
same,TGI,SF-295 CNS,> 100 µM
same,GI50,HCC-2998 colon,4.06 µM
same,TGI,HCC-2998 colon,> 100 µM
same,TGI,MDA-N,5.13 µM
same,TGI,786-0 renal,> 100 µM
same,GI50,M14 melanoma,37 µM
same,TGI,M14 melanoma,> 100 µM
same,TGI,HL-60(TB) leukemia,> 100 µM
same,TGI,EKVX NSCLC,> 100 µM
same,TGI,TK-10 renal,> 100 µM
same,TGI,OVCAR-4 ovarian,> 100 µM
same,GI50,MCF7 breast,7.84 µM
same,TGI,MCF7 breast,> 100 µM
same,TGI,K-562 leukemia,> 100 µM
same,TGI,IGROV1 ovarian,> 100 µM
same,TGI,MDA-MB-231 breast,> 100 µM
same,TGI,UACC-257 melanoma,> 100 µM
same,TGI,COLO 205 colon,> 100 µM
same,TGI,LOX IMVI melanoma,> 100 µM
same,TGI,CCRF-CEM leukemia,> 100 µM
same,TGI,SN12C renal,> 100 µM
same,TGI,SF-268 CNS,> 100 µM
same,TGI,PC-3 prostate,> 100 µM
same,TGI,SW-620 colon,> 100 µM
